One test concerns the target T1, Thromboxane-A synthase (Homo sapiens, UniProt P24557).
T1 sequence (P24557 whole entry): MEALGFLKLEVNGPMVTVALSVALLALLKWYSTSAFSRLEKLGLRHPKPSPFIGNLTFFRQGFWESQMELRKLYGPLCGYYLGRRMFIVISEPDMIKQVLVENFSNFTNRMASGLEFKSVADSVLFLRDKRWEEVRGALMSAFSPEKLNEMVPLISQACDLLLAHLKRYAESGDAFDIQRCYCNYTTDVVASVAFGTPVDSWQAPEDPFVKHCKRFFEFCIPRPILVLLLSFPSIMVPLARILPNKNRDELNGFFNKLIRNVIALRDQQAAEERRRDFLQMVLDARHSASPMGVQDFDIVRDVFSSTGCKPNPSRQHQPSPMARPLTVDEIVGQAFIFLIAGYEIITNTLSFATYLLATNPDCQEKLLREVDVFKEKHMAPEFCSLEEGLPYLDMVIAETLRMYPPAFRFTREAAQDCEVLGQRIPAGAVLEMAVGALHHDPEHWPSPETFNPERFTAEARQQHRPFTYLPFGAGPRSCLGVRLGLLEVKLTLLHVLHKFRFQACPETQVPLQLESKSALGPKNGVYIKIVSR
Description: Inhibitory activity against Thromboxane A2 synthase in human platelet microsome; inactive.
Broadly, the IC50 is the concentration that inhibits the measured activity by half. As to `CC#CCC(C)[C@H](O)/C=C/[C@@H]1[C@H]2C/C(=C/CCCC(=O)O)C[C@H]2C[C@H]1O` (stereo partly drawn) [ILOPROST], the IC50 entry is reported as “Not Active”.

A further test concerns the target T1, Thromboxane-A synthase. Description: Inhibitory activity against Thromboxane A2 synthase in human platelet microsome; Inactive.
Turning to `O=C(O)COc1cccc2c1CCCC2CCON=C(c1ccccc1)c1ccccc1` (stereo not drawn), the IC50 result is listed as “Not Active”.

As to `C/C(CC1CCc2c(cccc2OCC(=O)O)C1)=N\OC(c1ccccc1)c1ccccc1` (stereo not drawn), the IC50 entry is “Not Active”.

The species entered for another test is Homo sapiens. Description: PGI-2 agonistic activity by measuring inhibition of 4 uM ADP-induced human platelet aggregation; Inactive. The format is functional.
With `O=C(O)/C=C/c1ccc(Cn2ccnc2)cc1` [OZAGREL], the IC50 result is on record as “Not Active”.

For the compound `C/C(=C\c1ccc(Cc2cccnc2)cc1)C(=O)[O-].[Na+]` [ONO-1581], the IC50 entry is listed as “Not Active”.

For the next test, the species on record is Homo sapiens. Description: PGI-2 agonistic activity by measuring inhibition of 4 uM ADP-induced human platelet aggregation. The format is functional.
For `CCC/C(CC1CCc2c(cccc2OCC(=O)O)C1)=N\OC(c1ccccc1)c1cccnc1` (stereo not drawn), the IC50 is 0.32 µM.

`O=C(O)COc1cccc2c1CCCC2CCO/N=C(\c1ccccc1)c1cccnc1` (stereo not drawn) gave a concentration for half-maximal inhibition (IC50) of 0.24 µM.

The compound `O=C(O)COc1cccc2c1CCC(Cn1cc(C(c3ccccc3)c3cccnc3)cn1)C2` (stereo not drawn) came in with an IC50 of 0.15 µM.

As for `C/C(CC1CCc2c(cccc2OCC(=O)O)C1)=N\OC(c1ccccc1)c1ccccn1` (stereo not drawn), the IC50 came to 0.57 µM.

Compound `O=C(O)COc1cccc2c1CCC(Cn1cc(C(c3ccccc3)c3ccccc3)cn1)C2` (stereo not drawn) had an IC50 of 0.13 µM.

In the case of `O=C(O)COc1cccc2c1CCCC2CCC(=O)NN(c1ccccc1)c1cccnc1` (stereo not drawn), the IC50 was determined as 0.44 µM.

For `C/C(CC1CCc2c(cccc2OCC(=O)O)C1)=N\OC(c1ccccc1)c1cccnc1` (stereo not drawn), the IC50 was 1.4 µM.

For the compound `C/C(CC1CCc2c(cccc2OCC(=O)O)C1)=N\OC(c1ccccc1)c1ccccc1` (stereo not drawn), the IC50 was found to be 0.23 µM.

Consider `C/C(CC1CCc2c(cccc2OCC(=O)O)C1)=N\OC(c1ccccc1)c1ccncc1` (stereo not drawn), for which the IC50 turned out to be 0.48 µM.

`CC#CCC(C)[C@H](O)/C=C/[C@@H]1[C@H]2C/C(=C/CCCC(=O)O)C[C@H]2C[C@H]1O` (stereo partly drawn) [ILOPROST] showed an IC50 of 0.0014 µM.

A further test addresses T1, Thromboxane-A synthase. Description: Inhibitory activity against Thromboxane A2 synthase in human platelet microsome.
In the case of `CCC/C(CC1CCc2c(cccc2OCC(=O)O)C1)=N\OC(c1ccccc1)c1ccccc1` (stereo not drawn) [AP-227], the IC50 result is recorded as “Not Active”.

Turning to `O=C(O)COc1cccc2c1CCCC2CCC(=O)NN(c1ccccc1)c1ccccc1` (stereo not drawn), the IC50 entry is on record as “Not Active”.

`O=C(O)COc1cccc2c1CCC(Cn1cc(C(c3ccccc3)c3ccccc3)cn1)C2` (stereo not drawn): the IC50 entry is recorded as “Not Active”.

The values above are taken from ChEMBL document CHEMBL1150504, “Pharmacological evaluation of combined PGI2 agonists/thromboxane synthase inhibitors. I” (Bioorg Med Chem Lett, 1995).
